Assay results: patent US11053281B2, “Peptoid affinity ligands” (MIKE-ANN, LLC, priority 2016, dated 2021)
Where two headings read alike, the source gives them in different places. *1 amine or outer side, *2 acyl side, *3 side chain or, on linkers, in order; H or OH if unused. Where a SMILES comes first, the peptide text is derived from it. [ ]: non-standard residue; d: D form. Gly(N(CH2)2(3-indolyl)) = O=C(O)CNCCc1c[nH]c2ccccc12; Gly(N-(CH2)3-guanidino) = N=C(N)NCCCNCC(=O)O; NGly(CH2(3-pyridyl)) = O=C(O)CNCc1cccnc1; N(CH2CH2COOH)Gly = O=C(O)CCNCC(=O)O; Gly(N(CH2)3NH2) = NCCCNCC(=O)O; Cysteamide = C(CS[*:3])N[*:1]; Nphe = O=C(O)CNCc1ccccc1; NPrGly = CCCNCC(=O)O; Nme = COCCNCC(=O)O; Sar = CNCC(=O)O

System: polyclonal human IgG
Test: Adsorption isotherm of peptoid affinity resins against polyclonal human IgG
Type: binding
Parameters: Qmax: unit not given here
Conditions: for Qmax: maximum capacity (qmax) of resin from isotherm fit; for Kd: peptoid ligand conjugated to chromatographic resin, IgG in PBS, hyperbola fit of isotherm, Kd given in molar, read-out: Kd x 10^−6
Description: The affinity for the peptoid-resin combinations was determined by measuring the adsorption isotherm of each resin against polyclonal human IgG (Pakimna et al., J Applied Sci., 12(11): 1136-1141, 2012). Briefly, 0.050 mL of 50% resin slurry was pipetted into 6 individual wells of a 96-well filter plate (0.45 micron, PVDF, Harvard Apparatus). The resin was washed with 2×250 μL PBS using a vacuum manifold. To an individual well, 0.25 mL of a human polyclonal IgG solution at different concentrations (10, 5, 2.5, 1.25, 0.625, and 0.3125 mg/mL) was added. The resin/IgG suspension was agitated gently on a rocking table for 30 minutes. The fluid was then collected via vacuum, and the resin was washed with 0.25 mL of PBS. The filtrate and wash were then analyzed by the BCA assay to determine the residual IgG concentration relative to the starting concentration of the solution.
The equilibrium concentrations were then used to determine the capacity of the resin at each IgG concentration using the following formula: q=Volumesample×(Initial Concentration−Equilibrium Concentration)/Volumeresin
A plot of q versus equilibrium concentration was generated and the data fit with a hyperbola to determine the affinity constant (Kd) and the maximum capacity (qmax) according to the below formula, where C=the equilibrium concentration of antibody in solution: q=qmax×C/(kd+C) Typical adsorption isotherm is shown in FIG. 2. Tabulated Kd and qmax data is found in Table 2.

Row | SMILES | Kd (Table 2) [µM] | Kd (Table 3) [µM] | Qmax (Table 2) | Qmax (Table 3)
1 | CCCNCC(=O)N(CCc1c[nH]c2ccccc12)CC(=O)NCC(=O)N(CCCNC(=N)N)CC(=O)N(CCc1c[nH]c2ccccc12)CC(=O)N(CC(=O)NCCS)Cc1cccnc1 [Ligand 12-65-9] | 9.3 | – | 76 | –
2 | COCCNCC(=O)N(CCc1c[nH]c2ccccc12)CC(=O)N(CCc1c[nH]c2ccccc12)CC(=O)N(CCCN)CC(=O)N(CC(=O)N(CCC(=O)O)CC(=O)N(C)CC(=O)NCCS)Cc1cccnc1 [Ligand 12-73-2] (H-[Nme][Gly(N(CH2)2(3-indolyl))][Gly(N(CH2)2(3-indolyl))][Gly(N(CH2)3NH2)][NGly(CH2(3-pyridyl))][N(CH2CH2COOH)Gly][Sar]-Cysteamide) | 2.7 | – | 74 | –
3 | CCCN(CC(=O)N(CCc1c[nH]c2ccccc12)CC(=O)NCCS)C(=O)CN(CCc1c[nH]c2ccccc12)C(=O)CN(C)C(=O)CN(CCc1c[nH]c2ccccc12)C(=O)CN(Cc1cccnc1)C(=O)CNCCCN [Ligand 12-73-4] (H-[Gly(N(CH2)3NH2)][NGly(CH2(3-pyridyl))][Gly(N(CH2)2(3-indolyl))][Sar][Gly(N(CH2)2(3-indolyl))][NPrGly][Gly(N(CH2)2(3-indolyl))]-Cysteamide) | 3.9 | – | 72 | –
4 | CCCN(CC(=O)N(C)CC(=O)N(CCc1c[nH]c2ccccc12)CC(=O)N(CCC)CC(=O)N(CCc1c[nH]c2ccccc12)CC(=O)NCCS)C(=O)CN(CCCNC(=N)N)C(=O)CNCCc1c[nH]c2ccccc12 [Ligand 12-76-3] (H-[Gly(N(CH2)2(3-indolyl))][Gly(N-(CH2)3-guanidino)][NPrGly][Sar][Gly(N(CH2)2(3-indolyl))][NPrGly][Gly(N(CH2)2(3-indolyl))]-Cysteamide) | – | 3.2 | – | 87
5 | CCCN(CC(=O)N(CCc1c[nH]c2ccccc12)CC(=O)NCCS)C(=O)CN(CCc1c[nH]c2ccccc12)C(=O)CN(C)C(=O)CN(CCc1c[nH]c2ccccc12)C(=O)CN(Cc1cccnc1)C(=O)CNCCCNC(=N)N [Ligand 12-76-4] (H-[Gly(N-(CH2)3-guanidino)][NGly(CH2(3-pyridyl))][Gly(N(CH2)2(3-indolyl))][Sar][Gly(N(CH2)2(3-indolyl))][NPrGly][Gly(N(CH2)2(3-indolyl))]-Cysteamide) | 5.7 | – | 89 | –
6 | CCCNCC(=O)N(CC(=O)N(CC(=O)N(C)CC(=O)N(CCc1c[nH]c2ccccc12)CC(=O)N(CCC)CC(=O)N(CCc1c[nH]c2ccccc12)CC(=O)NCCS)Cc1ccccc1)Cc1cccnc1 [Ligand 12-79-4] (H-[NPrGly][NGly(CH2(3-pyridyl))][Nphe][Sar][Gly(N(CH2)2(3-indolyl))][NPrGly][Gly(N(CH2)2(3-indolyl))]-Cysteamide) | – | 3.6 | – | 69

Second part, led by results:

Row | Kd (Table 2) [µM] | Kd (Table 3) [µM] | SMILES | Qmax (Table 2) | Qmax (Table 3)
7 | – | 6.1 | CCCN(CC(=O)N(CCc1c[nH]c2ccccc12)CC(=O)NCCS)C(=O)CN(CCc1c[nH]c2ccccc12)C(=O)CN(C)C(=O)CN(CCCNC(=N)N)C(=O)CN(CCOC)C(=O)CNCc1cccnc1 [Ligand 15-28-5] (H-[NGly(CH2(3-pyridyl))][Nme][Gly(N-(CH2)3-guanidino)][Sar][Gly(N(CH2)2(3-indolyl))][NPrGly][Gly(N(CH2)2(3-indolyl))]-Cysteamide) | – | 61
8 | – | 66 | CCCN(CC(=O)N(CCc1c[nH]c2ccccc12)CC(=O)NCCS)C(=O)CN(CCc1c[nH]c2ccccc12)C(=O)CN(C)C(=O)CN(Cc1cccnc1)C(=O)CN(CCOC)C(=O)CNCc1cccnc1 [Ligand 15-91-1] (H-[NGly(CH2(3-pyridyl))][Nme][NGly(CH2(3-pyridyl))][Sar][Gly(N(CH2)2(3-indolyl))][NPrGly][Gly(N(CH2)2(3-indolyl))]-Cysteamide) | – | 80
9 | – | 6 | CCCN(CC(=O)N(CCc1c[nH]c2ccccc12)CC(=O)NCCS)C(=O)CN(CCc1c[nH]c2ccccc12)C(=O)CN(C)C(=O)CN(CCC(=O)O)C(=O)CN(Cc1cccnc1)C(=O)CNCCCN [Ligand 15-91-4] (H-[Gly(N(CH2)3NH2)][NGly(CH2(3-pyridyl))][N(CH2CH2COOH)Gly][Sar][Gly(N(CH2)2(3-indolyl))][NPrGly][Gly(N(CH2)2(3-indolyl))]-Cysteamide) | – | 32
